Each structure is given as a SMILES string. Read-outs that look alike come from different tables or passages of the source. Bounds are passed on as bounds.

The values below come from US12139488B2, “Pyrido[3,2-d]pyrimidine compounds uses thereof for treating a proliferative disease” (Universite de Montreal, priority 2021, dated 2024).

One assay concerns the target ARAF (Homo sapiens (Human), UniProt P10398). Description: ARAF kinase activity assay (AlphaLISA p-MEK 1/2 detection). It counts as biochemical. Here is the method:
Compound preparation: solid samples of each substances in 1 dram vials were suspended in DMSO (Fisher Scientific) at a stock concentration of 20 mM. Stocks were kept at −20° C. and protected from light. If solubility of the compound at 20 mM appeared to be an issue, the initial concentration of the DMSO stock was changed to 10 mM or 5 mM.
In vitro enzymatic reactions were used for evaluating compounds intrinsic activity against BRAF, CRAF and ARAF. For BRAF and CRAF, 0.375 nM of purified GST-tagged kinases (cat #B4062-10 UG and cat #R1656-10 UG respectively from Millipore Sigma) were incubated with 75 nM of kinase-dead MEK1 substrate (cat #40075; BPS Bioscience) in the presence of 10 μM of Ultrapure ATP (cat #V9102; Promega; part V915A) with and without the test compound in a buffer containing 50 mM HEPES pH 7.5, 10 mM MgCl2, 1 mM EDTA, 0.01% Brij-35 and 2 mM DTT. Separate reactions were performed with the MEK1 substrate and ATP as a blank control. ARAF, kinase reactions were rigorously the same with the exception that kinase concentration was raised to 3.75 nM (cat #1768-0000-1; Reaction Biology).
For compound treatment, 5 μL/well of test substance solution are placed in a 384-well proxyplate (Perkin Elmer) and mixed with 2× concentrated kinase reactions. The dilution series is selected so that nine concentrations cover a range from 100 nM to 0.01 nM. […] The final concentration of DMSO in the assay is set at 0.05%.
ARAF kinase reactions were carried out for a total of 2 hours at 30° C. and then stopped by addition of EDTA at a final concentration of 40 mM. Reactions were then detected using the AlphaLISA® SureFire® Ultra™ p-MEK 1/2 (Ser218/222) (PerkinElmer) kit. Reactions were performed with 5 μL of kinase reaction according to the manufacturer's specifications in 384-well proxyplates (Perkin Elmer) followed by overnight incubation of the AlphaLISA® reactions at room temperature in a humidified chamber. After completion of the detection reactions, the signals were recorded on a Synergy Neo2 plate reader (Biotek) equipped with AlphaLISA® filters. The effect of each compound dilution on the pMEK signal generated by ARAF reactions was expressed in % inhibition and calculated as follows. An internal 100% inhibition control (average of luminescence in kinase reactions comprising kinase dead MEK1 substrate alone) was included in each plate to measure of pMEK background and was subtracted from each data point. The average of DMSO (vehicle) controls (set as 0% inhibition) was also established and used to calculate % inhibition: % inhibition=100*(1−((pMEK signalcompound)/(pMEK signalDMSO)))
IC50 values were obtained by plotting the kinase inhibition values and fitting the dose-activity curves using a log(agonist) versus response-variable slope (four parameters) function using either GraphPadPrism (V7.0) or Dotmatics Screening Ultra platform. Standards included in the ARAF kinase assay were Belvarafenib (MedChem Express cat #HY-109080; CAS #1446113-23-0), LXH254 (MedChem Express cat #HY-112089; CAS #1800398-38-2) and BGB283 (cat #HY-18957; CAS #1446090-79-4).
Background: Alpha assays give light when donor and acceptor beads are brought close together.

For another assay, the target named is BRAF (Homo sapiens (Human), UniProt P15056). The assay is described as follows: BRAF kinase activity assay (ADP-Glo). The assay is classed as biochemical. The conditions noted are these: read-out: Kinase IC50 (nM) BRAF. The method in brief:
(§1)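 Compound was tested at nine concentrations (0.01–100 nM, 0.05% DMSO final) against BRAF or CRAF phosphorylating MEK1 with ATP, for 2 h at 30 °C. ADP formed was read by ADP-Glo luminescence, and % inhibition was fitted with a four-parameter log(agonist) model to obtain IC50.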

Another assay concerns the target CRAF (Homo sapiens, UniProt P04049). Description: CRAF kinase activity assay (ADP-Glo). It counts as biochemical. The conditions noted are these: read-out: Kinase IC50 (nM) CRAF. The method in brief: as §1
The test system of assay [1] is pERK in HCT-116 cells (KRAS G13D). Description: Phospho-ERK inhibition (AlphaLISA SureFire Ultra p-ERK 1/2), HCT116. The assay is classed as cell-based, human. In short, it runs like this:
(§2)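 p-ERK1/2 (Thr202/Tyr204) in lysates measured by AlphaLISA after 1 h compound exposure of overnight-plated cells (RPMI-1640, 5% FBS, 0.5% DMSO, ten concentrations, usually from 10 μM). Background from a trametinib control subtracted, inhibition normalised to vehicle, and IC50 fitted with a variable-slope four-parameter model.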

Assay [2] relates to pERK in SW480 cells (KRAS G12D). The assay is described as follows: Phospho-ERK inhibition (AlphaLISA), SW480. The assay is classed as cell-based, human. The method in brief:
as §2

Assay [3] has as its system pERK and pMEK in RAS-mutant HCT-116 cells. Description: Immunoblot analysis of pERK and pMEK in HCT-116 cells. The conditions noted are these: 1 h treatment, FIG. 2. It counts as cell-based, human. Here is the method:
For immunoblotting analysis, 500,000 HCT-116 cells were plated in 1 mL of complete RPMI-1640 growth medium in 24-well flat-bottomed transparent dishes (Costar). Cells were maintained overnight at 37° C. under 5% CO2 before treatment with compounds' dilution series for one hour.
Cells were then washed once in PBS and lized in 250 μL of Igepal Lysis Buffer (50 mM Tris-HCl pH 7.5, 150 mM NaCl, 1% Igepal-CA630, 1 mM EDTA, 10% Glycerol) supplemented with Leupeptin, Aprotinin, PMSF, phosphatase inhibitor cocktail (Sigma) and Na3VO4 at 4° C. for 15 minutes with gentle rocking. Cell extracts were then cleared by centrifugation at 20,000 g at 4° C. for 10 minutes. Cleared lysates were then transferred on ice in fresh tubes and then boiled in sample loading buffer (100 mM Tris-HCl pH 6.8, 4% SDS, 0.2% bromophenol blue, 20% glycerol, 200 mM p-mercaptoethanol) for 5 minutes prior to fractionation by SDS-PAGE and transfer to nitrocellulose membranes (PALL). […]
On the technique in general: A western blot detects proteins with antibodies after separation by electrophoresis.

[4] abbreviates: HCT116 cells, class symbol before the bracket.
[5] abbreviates: SW480 cells, class symbol before the bracket.

BRAF, sequence (P15056 whole entry): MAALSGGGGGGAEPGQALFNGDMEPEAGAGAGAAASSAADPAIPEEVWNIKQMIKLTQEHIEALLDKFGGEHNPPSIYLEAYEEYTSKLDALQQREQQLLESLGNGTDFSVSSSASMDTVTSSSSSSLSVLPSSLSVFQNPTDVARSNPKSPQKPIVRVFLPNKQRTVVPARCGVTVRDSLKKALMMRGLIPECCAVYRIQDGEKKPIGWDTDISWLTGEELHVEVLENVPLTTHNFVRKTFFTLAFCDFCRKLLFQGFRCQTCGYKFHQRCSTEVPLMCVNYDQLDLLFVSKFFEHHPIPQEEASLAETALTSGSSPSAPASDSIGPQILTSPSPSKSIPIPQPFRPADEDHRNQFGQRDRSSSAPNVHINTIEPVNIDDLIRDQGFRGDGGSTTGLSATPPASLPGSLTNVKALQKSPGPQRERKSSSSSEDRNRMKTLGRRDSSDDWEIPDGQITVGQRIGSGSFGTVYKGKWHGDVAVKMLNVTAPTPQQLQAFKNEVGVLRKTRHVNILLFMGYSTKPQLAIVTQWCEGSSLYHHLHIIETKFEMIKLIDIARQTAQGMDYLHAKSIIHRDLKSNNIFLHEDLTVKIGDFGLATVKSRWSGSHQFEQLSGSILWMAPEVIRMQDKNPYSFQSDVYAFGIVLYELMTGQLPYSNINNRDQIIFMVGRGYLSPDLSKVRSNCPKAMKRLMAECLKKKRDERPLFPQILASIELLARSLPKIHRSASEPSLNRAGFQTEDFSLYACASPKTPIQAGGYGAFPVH
ARAF, sequence (P10398 whole entry): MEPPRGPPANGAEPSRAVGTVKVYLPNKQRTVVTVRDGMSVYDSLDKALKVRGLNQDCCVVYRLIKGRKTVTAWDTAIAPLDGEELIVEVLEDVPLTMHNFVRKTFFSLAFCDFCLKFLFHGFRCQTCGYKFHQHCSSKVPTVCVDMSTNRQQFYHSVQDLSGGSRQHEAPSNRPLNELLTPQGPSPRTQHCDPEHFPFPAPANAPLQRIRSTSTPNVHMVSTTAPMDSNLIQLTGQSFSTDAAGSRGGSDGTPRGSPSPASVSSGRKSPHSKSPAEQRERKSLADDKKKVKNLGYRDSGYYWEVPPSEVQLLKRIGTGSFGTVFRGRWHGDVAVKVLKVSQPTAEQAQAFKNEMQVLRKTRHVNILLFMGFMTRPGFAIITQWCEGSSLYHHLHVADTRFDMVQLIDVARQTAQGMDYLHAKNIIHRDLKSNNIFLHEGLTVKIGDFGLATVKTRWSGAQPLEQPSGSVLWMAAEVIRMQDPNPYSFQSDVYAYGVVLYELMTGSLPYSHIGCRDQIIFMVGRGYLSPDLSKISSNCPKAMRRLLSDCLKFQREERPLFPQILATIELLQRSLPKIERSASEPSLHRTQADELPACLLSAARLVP
CRAF, sequence (P04049 whole entry, looked up): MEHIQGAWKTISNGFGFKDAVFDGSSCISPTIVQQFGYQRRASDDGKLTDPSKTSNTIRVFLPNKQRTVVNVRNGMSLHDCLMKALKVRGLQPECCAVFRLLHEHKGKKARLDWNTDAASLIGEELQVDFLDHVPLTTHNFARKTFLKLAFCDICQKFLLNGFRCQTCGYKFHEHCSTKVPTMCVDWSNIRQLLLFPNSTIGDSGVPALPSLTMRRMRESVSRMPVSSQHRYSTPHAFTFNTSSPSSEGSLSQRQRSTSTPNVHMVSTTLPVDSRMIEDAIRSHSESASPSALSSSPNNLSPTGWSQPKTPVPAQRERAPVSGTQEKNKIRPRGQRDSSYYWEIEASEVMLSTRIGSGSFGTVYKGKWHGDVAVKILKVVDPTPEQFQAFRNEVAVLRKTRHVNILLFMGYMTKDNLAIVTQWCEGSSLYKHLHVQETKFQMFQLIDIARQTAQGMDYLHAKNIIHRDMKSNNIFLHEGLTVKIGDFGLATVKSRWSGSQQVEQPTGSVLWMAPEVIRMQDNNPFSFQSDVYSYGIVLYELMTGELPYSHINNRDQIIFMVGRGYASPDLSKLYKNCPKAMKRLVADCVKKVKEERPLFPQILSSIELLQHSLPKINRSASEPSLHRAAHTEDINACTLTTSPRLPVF

As for `O=C1CCc2c(Oc3ccc4c(c3)[C@@H]3[C@H](O4)[C@H]3c3nc4ccc(C(F)(F)F)cc4[nH]3)ccnc2N1` [BGB283, reference compound], the IC50 (usually the midpoint of a concentration-inhibition curve) on ARAF was > 10 nM.

For the molecule `Cc1ccc(NC(=O)c2ccnc(C(F)(F)F)c2)cc1-c1cc(OCCO)nc(N2CCOCC2)c1` [LXH254, reference compound], the half-inhibitory concentration (IC50) on ARAF is > 10 nM.

As for `CN(C)C(=O)c1cn(-c2ccc3ncnc(Nc4c(F)ccc(NS(=O)(=O)c5ccccc5Cl)c4F)c3n2)c2cccc(N)c12` [Example 96], the IC50 is < 1 nM on BRAF, > 50 nM at CRAF, < 500 nM in assay [1] (setting [4]) and < 500 nM in assay [2] (setting [5]). Further, the “HCT116 pERK Ymin %” value in assay [1] (HCT116 cells, Ymin in brackets) was determined as 12%. In assay [2] (SW480 cells, Ymin in brackets), the “SW480 pERK Ymin %” value stood at 12%.

Regarding `Nc1cccc2c1ncn2-c1ccc2ncnc(Nc3c(F)ccc(NS(=O)(=O)c4ccccc4Cl)c3F)c2n1` [Example 83], the IC50 at BRAF is 1 to 10 nM; at CRAF, < 10 nM; in assay [1] (setting [4]), < 500 nM; in assay [2] (setting [5]), < 500 nM. Also, in assay [1] (HCT116 cells, Ymin in brackets), the “HCT116 pERK Ymin %” value is listed as −7.3%. In assay [2] (SW480 cells, Ymin in brackets), the “SW480 pERK Ymin %” value is reported as 2.5%.

For the molecule `O=S(=O)(Nc1ccc(F)c(Nc2ncnc3ccc(-n4cnc5ccccc54)nc23)c1F)c1ccccc1Cl` [Example 8], the IC50 was 1 to 10 nM on BRAF; < 10 nM on CRAF; 500 to 1000 nM in assay [1] (HCT116 cells, 1 h treatment); 500 to 1000 nM in assay [2] (SW480 cells, 1 h treatment). Further, in assay [1] (lowest % inhibition value of the IC50 curve, HCT116), the “HCT116 pERK Ymin %” value is reported as −2.5%. In addition, the “SW480 pERK Ymin %” value in assay [2] (lowest % inhibition value of the IC50 curve, SW480) is 4.8%.

Take `Cc1c(Cl)cccc1S(=O)(=O)Nc1cccc(Nc2ncnc3ccc(-n4cnc5ccccc54)nc23)c1F` [Example 240]: the IC50 at BRAF (Table 5) was 1 to 10 nM; on CRAF (Table 5), 10 to 50 nM; in assay [1] (HCT116 cells, Table 5), < 500 nM; in assay [2] (SW480 cells, Table 5) it was < 500 nM. Moreover, the “HCT116 pERK Ymin %” value in assay [1] (lowest value of the curve, HCT116, Table 5) worked out at 7%. Further, in assay [2] (lowest value of the curve, SW480, Table 5), the “SW480 pERK Ymin %” value is recorded as “(−8) %”.

With `COc1ccc(S(=O)(=O)Nc2ccc(F)c(Nc3ncnc4ccc(-n5cnc6c(N)cccc65)nc34)c2F)c(C)c1` [Ex 76], the IC50 was 1 to 10 nM at BRAF, 10 to 50 nM on CRAF, < 500 nM in assay [1] (setting [4]) and < 500 nM in assay [2] (setting [5]). Further, the “HCT116 pERK Ymin %” value in assay [1] (HCT116 cells, Ymin in brackets) is given as 8%. Also, the “SW480 pERK Ymin %” value in assay [2] (SW480 cells, Ymin in brackets) worked out at 6%.

For the molecule `O=S(=O)(Nc1ccc(F)c(Nc2ncnc3ccc(-c4cncs4)nc23)c1F)c1ccccc1Cl` [Ex 67], the IC50 on BRAF was in the range of 1 to 10 nM; on CRAF, 10 to 50 nM; in assay [1] (setting [4]), 500 to 1000 nM; in assay [2] (setting [5]), 500 to 1000 nM. The “HCT116 pERK Ymin %” value in assay [1] (HCT116 cells, Ymin in brackets) was −3.6%. The “SW480 pERK Ymin %” value in assay [2] (SW480 cells, Ymin in brackets) was −1.3%.

For `Nc1ncnc2c1ncn2-c1ccc2ncnc(Nc3c(F)ccc(NS(=O)(=O)c4ccccc4Cl)c3F)c2n1` [Ex 89], the IC50 at BRAF is 1 to 10 nM; on CRAF, > 50 nM; in assay [1] (setting [4]), 1000 to 10000 nM; in assay [2] (setting [5]), 1000 to 10000 nM. Further, the “HCT116 pERK Ymin %” value in assay [1] (HCT116 cells, Ymin in brackets) is 8%. The “SW480 pERK Ymin %” value in assay [2] (SW480 cells, Ymin in brackets) is given as −3%.

Turning to `CCCS(=O)(=O)Nc1ccc(F)c(C(=O)c2c[nH]c3ncc(Cl)cc23)c1F` [PLX4720, reference compound], the “YMIN of pERK IC50 dose response curve (paradoxical induction of pERK signaling)” value in assay [1] (RAS-mutant HCT116 cells, FIG. 1) is ~−600%. In assay [3], the “paradoxical induction of pERK or pMEK signaling (immunoblot)” value is recorded as “induces the pathway”.

With `Cc1nc(N)ccc1S(=O)(=O)Nc1ccc(F)c(Nc2ncnc3ccc(-n4cnc5c(N)cccc54)nc23)c1F` [Example 353], the IC50 was 1 to 10 nM at ARAF and 1000 to 10000 nM in assay [1] (HCT116 cells, class symbol).

Consider `COc1ccc(S(=O)(=O)Nc2ccc(F)c(Nc3ncnc4ccc(-c5cncs5)nc34)c2F)c(C)c1` [Ex 59], for which the IC50 at BRAF is > 10 nM; at CRAF it was 10 to 50 nM; in assay [1] (setting [4]), 500 to 1000 nM; in assay [2] (setting [5]) it was 500 to 1000 nM. For the same molecule, the “HCT116 pERK Ymin %” value in assay [1] (HCT116 cells, Ymin in brackets) is −0.7%. The “SW480 pERK Ymin %” value in assay [2] (SW480 cells, Ymin in brackets) is reported as −4.9%.
